# Molecular target: T1, USP7, Active human recombinant protein (Homo sapiens, UniProt Q93009)
# T1 construct: purchased CP Lot; 20200225001
# Experiment: USP7 assay (Ubiquitin-Rhodamine 110 enzymatic assay)
# Assay type: biochemical
# Conditions: read-out: IC50
# Procedure: Enzymatic Assays with Exemplary USP7 Irreversible Inhibitors
# ND refers to not disclosed.
# USP7, Active human recombinant protein (CP, Lot. 20200225001), Ubiquitin-Rhodamine 110 (Rh110) (BostonBiochem, Cat. No. U-555), DMSO (Sigma, Cat. N34869), DTT (Sangon Biotech, Cat. No. A620058-0005), […] Tris pH 8.0 (Sigma, Cat. No. T2694-1L), Tween-20 (Sigma, Cat. No. P2287-100ML), EDTA (Invitrogen, Cat. No. 15575020, BSA (Sigma, Cat. No. B2064-100G), 384-well assay plate (Corning, Cat. No. 3573), Echo Qualified 384-Well Polypropylene Microplate 2.0, Clear, Flat Bottom (LABCYTE, Cat. No. 001-14555).
# Dilute the compounds to 400× of the final desired highest inhibitor concentration in reaction by 100% DMSO. For all compounds, transfer the compounds to one well in a 384-well Echo plate and serially dilute the compound by 3-fold dilution of 100% DMSO in the next well and so forth for a total of 10 concentrations by Precision. Add 30 μL of 100% DMSO to two empty wells for no compound control and no enzyme control in the same 384-well Echo plate. Make the plate as a source plate.
# For USP7 assay, transfer 50 nL of each well from the source plate to a 384-well assay plate (OptiPlate TM-384 F black assay plates) by Echo 550 Liquid Handler.
# Added appropriate amount of USP7 in 1× assay Buffer to prepare 2× enzyme solution (USP7 final concentration: 0.05 nM). Added appropriate amount of Ubiquitin-Rhodamine 110 in 1× assay Buffer to prepare 2× substrate solution (Ubiquitin-Rhodamine 110 final concentration: 190 nM). Added 10 μL of 2× enzyme solution to each reaction well of the 384-well assay plate, except for control wells without enzyme (add 10 μL of 1× Assay Buffer instead as for low control). […] Transferred 2× substrate solution to the assay plate. Added 10 μL of 2× substrate solution to each well of the 384-well assay plate to start reaction. Centrifuged at 1000 rpm for 1 min. Read the plate kinetically on SpectraMax Paradigm for 20 min with excitation at 485 nm and emission at 535 nm. Copied raw data (slope) from Reader to obtain inhibition values in Excel using equation (1): […]
# Max signal was obtained from the action of Enzyme and Substrate. Min signal was obtained from the Substrate only. To fit the data in XLFit excel add-in version 5.4.0.8 to obtain IC50 values used equation (2): […]
# Y is % inhibition and X is compound concentration.
# T1 sequence (Q93009 whole entry): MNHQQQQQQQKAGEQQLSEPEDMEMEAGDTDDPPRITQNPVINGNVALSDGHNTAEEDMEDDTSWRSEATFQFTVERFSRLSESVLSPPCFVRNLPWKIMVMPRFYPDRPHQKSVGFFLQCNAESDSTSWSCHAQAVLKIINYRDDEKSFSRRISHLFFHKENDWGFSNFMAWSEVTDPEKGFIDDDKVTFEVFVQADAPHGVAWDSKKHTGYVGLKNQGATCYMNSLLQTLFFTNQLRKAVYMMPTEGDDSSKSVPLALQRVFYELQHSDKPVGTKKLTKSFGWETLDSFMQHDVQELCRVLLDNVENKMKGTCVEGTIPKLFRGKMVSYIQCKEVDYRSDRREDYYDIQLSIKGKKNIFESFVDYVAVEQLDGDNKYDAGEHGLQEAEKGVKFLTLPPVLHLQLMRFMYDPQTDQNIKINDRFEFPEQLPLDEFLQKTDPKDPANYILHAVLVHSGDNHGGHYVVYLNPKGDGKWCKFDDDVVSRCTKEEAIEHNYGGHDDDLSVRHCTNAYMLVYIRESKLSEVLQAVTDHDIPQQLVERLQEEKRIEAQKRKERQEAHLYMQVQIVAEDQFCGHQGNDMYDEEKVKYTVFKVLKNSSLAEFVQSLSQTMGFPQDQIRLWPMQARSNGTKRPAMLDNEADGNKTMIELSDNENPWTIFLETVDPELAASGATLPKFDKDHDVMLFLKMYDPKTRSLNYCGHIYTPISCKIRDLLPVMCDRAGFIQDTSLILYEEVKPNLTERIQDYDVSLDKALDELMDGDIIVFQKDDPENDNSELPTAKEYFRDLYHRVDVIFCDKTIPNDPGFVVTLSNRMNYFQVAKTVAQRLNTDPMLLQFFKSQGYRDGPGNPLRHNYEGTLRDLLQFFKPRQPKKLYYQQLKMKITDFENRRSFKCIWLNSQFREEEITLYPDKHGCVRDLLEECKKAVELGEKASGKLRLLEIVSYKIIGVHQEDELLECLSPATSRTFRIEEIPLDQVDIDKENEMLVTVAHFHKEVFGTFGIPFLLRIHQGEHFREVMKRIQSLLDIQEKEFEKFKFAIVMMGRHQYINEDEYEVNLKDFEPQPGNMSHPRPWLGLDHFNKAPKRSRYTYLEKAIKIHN
row,SMILES,IC50
1,CN(C)CCC(=O)Nc1ccc2c(=O)n(CC3(O)CCN(C(=O)[C@@]4(Cc5ccccc5)CCN(CCNC(=O)c5ccc6c(Cl)ccnc6c5)C4)CC3)cnc2c1 [Compound 57],> 1000 nM
2,C=CC(=O)Nc1ccc(Cl)cc1N1CCC(C(=O)N2CCC(O)(Cn3cnc4cc(NC(=O)CCN5CCN(C)CC5)ccc4c3=O)CC2)C(c2ccccc2)C1 (stereo not shown) [Compound 103],100 to 1000 nM
3,CN(C)CCCNc1ccc2c(=O)n(CC3(O)CCN(C(=O)[C@H](CCCNC(=O)c4ccc5c(Cl)cc(C6CC6)nc5c4)Cc4ccccc4)CC3)cnc2c1 [Compound 136],< 20 nM
4,COc1cc2c(=O)n(CC3(O)CCN(C(=O)[C@H](CCCNC(=O)c4ccc5c(Cl)cc(C6CC6)nc5c4)Cc4ccccc4)CC3)cnc2cc1OCCCN(C)C [Compound 138],20 to 100 nM
5,"C=CS(=O)(=O)NCc1cccc(C(=O)N2CCC(O)(Cn3cnc4cc(NC(=O)CCN5CCN(C)CC5)ccc4c3=O)CC2)c1 [Compound 26, N-(3-((4-hydroxy-1-(3-(vinylsulfonamidomethyl)benzoyl)piperidin-4-yl)methyl)-4-oxo-3,4-dihydroquinazolin-7-yl)-3-(4-methylpiperazin-1-yl)propanamide]",> 1000 nM
6,"CN(C)CC(=O)Nc1ccc2c(=O)n(CC3(O)CCN(C(=O)[C@H]4CC[C@@H](NC(=O)c5ccc6c(Cl)ccnc6c5)CC4)CC3)cnc2c1 [Compound 34, 4-chloro-N-((1s,4s)-4-(4-((7-(2-(dimethylamino)acetamido)-4-oxoquinazolin-3(4H)-yl)methyl)-4-hydroxypiperidine-1-carbonyl)cyclohexyl)quinoline-7-carboxamide]",> 1000 nM
7,"CN(C)CCC(=O)Nc1ccc2c(=O)n(CC3(O)CCN(C(=O)c4cnn(CCNC(=O)c5ccc6c(Cl)ccnc6c5)c4Cc4ccccc4)CC3)cnc2c1 [Compound 53, N-(2-(5-benzyl-4-(4-((7-(3-(dimethylamino)propanamido)-4-oxoquinazolin-3(4H)-yl)methyl)-4-hydroxypiperidine-1-carbonyl)-1H-pyrazol-1-yl)ethyl)-4-chloroquinoline-7-carboxamide]",100 to 1000 nM
8,CN(C)CCC(=O)Nc1ccc2c(=O)n(CC3(O)CCN(C(=O)C(CCCNC(=O)c4ccc5c(Cl)c6c(nc5c4)CNCC6)Cc4ccccc4)CC3)cnc2c1 (stereo not shown) [Compound 88],> 1000 nM
9,O=C(CCN1CCNCC1)Nc1ccc2c(=O)n(CC3(O)CCN(C(=O)[C@@H]4CCN(CCNC(=O)c5ccc6c(Cl)ccnc6c5)C[C@H]4c4ccc(C(F)(F)F)cc4)CC3)cnc2c1 [Compound 101],> 1000 nM
10,CN(C)CCC(=O)Nc1ccc2c(=O)n(CC3(O)CCN(C(=O)C(CCCNC(=O)c4ccc5c(Cl)ccnc5c4)Cc4cccnc4)CC3)cnc2c1 (stereo not shown) [Compound 82],100 to 1000 nM
11,"CN1CCN(CCC(=O)Nc2ccc3c(=O)n(CC4(O)CCN(C(=O)C(CCCNC(=O)c5ccc6c(Cl)cc(-c7cccc(C(F)(F)F)c7)nc6c5)Cc5ccccc5)CC4)cnc3c2)CC1 (stereo not shown) [Compound 15, N-(4-benzyl-5-(4-hydroxy-4-((7-(3-(4-methylpiperazin-1-yl)propanamido)-4-oxoquinazolin-3(4H)-yl)methyl)piperidin-1-yl)-5-oxopentyl)-4-chloro-2-(3-(trifluoromethyl)phenyl)quinoline-7-carboxamide]",100 to 1000 nM
12,"CN1CCN(CCC(=O)Nc2ccc3c(=O)n(CC4(O)CCN(C(=O)[C@H](CCCNC(=O)c5ccc6c(Cl)cc(-c7ccc(F)cc7)nc6c5)Cc5ccccc5)CC4)cnc3c2)CC1 [Compound 4, (R)—N-(4-benzyl-5-(4-hydroxy-4-((7-(3-(4-methylpiperazin-1-yl)propanamido)-4-oxoquinazolin-3(4H)-yl)methyl)piperidin-1-yl)-5-oxopentyl)-4-chloro-2-(4-fluorophenyl)quinoline-7-carboxamide]",> 1000 nM
13,CN(C)CCC(=O)Nc1ccc2c(=O)n(CC3(O)CCN(C(=O)[C@@H]4CN(CCNC(=O)c5ccc6c(Cl)ccnc6c5)C[C@H]4c4ccccc4)CC3)cnc2c1 [Compound 76],100 to 1000 nM
14,"CN(C)CC(=O)Nc1ccc2c(=O)n(CC3(O)CCN(C(=O)C4CCCC(NC(=O)c5ccc6c(Cl)ccnc6c5)C4)CC3)cnc2c1 (stereo not shown) [Compound 36, 4-chloro-N-(3-(4-((7-(2-(dimethylamino)acetamido)-4-oxoquinazolin-3(4H)-yl)methyl)-4-hydroxypiperidine-1-carbonyl)cyclohexyl)quinoline-7-carboxamide]",> 1000 nM
15,C=CS(=O)(=O)Nc1ccccc1N1CCC(C(=O)N2CCC(O)(Cn3cnc4cc(NC(=O)CCN5CCN(C)CC5)ccc4c3=O)CC2)CC1 [Compound 92],20 to 100 nM
16,CC1(C)C2C(=O)N(CC3(O)CCN(C(=O)[C@@H]4CCN(CCNC(=O)c5ccc6c(Cl)ccnc6c5)C[C@H]4c4ccccc4)CC3)C(=O)C21 (stereo partly shown) [Compound 99],> 1000 nM
17,"CN1CCN(CCOc2ccc3ncn(CC4(O)CCN(C(=O)C(CCCNC(=O)c5ccc6c(Cl)ccnc6c5)Cc5ccccc5)CC4)c(=O)c3c2)CC1 (stereo not shown) [Compound 38, N-(4-benzyl-5-(4-hydroxy-4-((6-(2-(4-methylpiperazin-1-yl)ethoxy)-4-oxoquinazolin-3(4H)-yl)methyl)piperidin-1-yl)-5-oxopentyl)-4-chloroquinoline-7-carboxamide]",> 1000 nM
18,O=C(NCCN1CC[C@@H](C(=O)N2CCC(O)(Cn3cnc4c(-c5ccc(Br)cc5)nsc4c3=O)CC2)[C@H](c2ccccc2)C1)c1ccc2c(Cl)ccnc2c1 [Compound 98],100 to 1000 nM

# More lines, now with the values ahead:
row,IC50,SMILES
1,> 1000 nM,"Cc1cc(Cl)nc2c(C(=O)NCCCC(Cc3ccccc3)C(=O)N3CCC(O)(Cn4cnc5cc(NC(=O)CCN(C)C)ccc5c4=O)CC3)ccn12 (stereo not shown) [Compound 44, N-(4-benzyl-5-(4-((7-(3-(dimethylamino)propanamido)-4-oxoquinazolin-3(4H)-yl)methyl)-4-hydroxypiperidin-1-yl)-5-oxopentyl)-2-chloro-4-methylpyrrolo[1,2-a]pyrimidine-8-carboxamide]"
2,100 to 1000 nM,"O=C(CCn1cccn1)Nc1ccc2c(=O)n(CC3(O)CCN(C(=O)C(CCCNC(=O)c4ccc5c(Cl)ccnc5c4)Cc4ccccc4)CC3)cnc2c1 (stereo not shown) [Compound 64, N-(5-(4-((7-(3-(JH-pyrazol-1-yl)propanamido)-4-oxoquinazolin-3(4H)-yl)methyl)-4-hydroxypiperidin-1-yl)-4-benzyl-5-oxopentyl)-4-chloroquinoline-7-carboxamide]"
3,> 1000 nM,"CN(C)CCC(=O)Nc1ccc2c(=O)n(CC3(O)CCN(C(=O)C(CCCNC(=O)c4cc5c(Cl)ccnc5[nH]4)Cc4ccccc4)CC3)cnc2c1 (stereo not shown) [Compound 48, N-(4-benzyl-5-(4-((7-(3-(dimethylamino)propanamido)-4-oxoquinazolin-3(4H)-yl)methyl)-4-hydroxypiperidin-1-yl)-5-oxopentyl)-4-chloro-1H-pyrrolo[2,3-b]pyridine-2-carboxamide]"
4,> 1000 nM,"Cn1c(=O)n(CC2(O)CCN(C(=O)C(CCCNC(=O)c3ccc4c(Cl)ccnc4c3)Cc3ccccc3)CC2)c2cnccc21 (stereo not shown) [Compound 37, N-(4-benzyl-5-(4-hydroxy-4-((1-methyl-2-oxo-1H-imidazo[4,5-c]pyridin-3(2H)-yl)methyl)piperidin-1-yl)-5-oxopentyl)-4-chloroquinoline-7-carboxamide]"
5,> 1000 nM,C=CC(=O)Nc1ccc(C#N)cc1N1CCC(C(=O)N2CCC(O)(Cn3cnc4cc(NC(=O)CCN5CCN(C)CC5)ccc4c3=O)CC2)C(c2ccccc2)C1 (stereo not shown)
6,> 1000 nM,CN1CCN(CCC(=O)Nc2ccc3c(=O)n(CC4(O)CCN(C(=O)[C@H](CCCNC(=O)c5ccc6c(Cl)cc(-c7cnn(CC(F)(F)F)c7)nc6c5)Cc5ccccc5)CC4)cnc3c2)CC1 [Compound 19]
7,100 to 1000 nM,"CN1CCN(CCC(=O)Nc2ccc3c(=O)n(CC4(O)CCN(C(=O)C(CCCNC(=O)c5ccc6c(Cl)cc(-c7cccc(C#N)c7)nc6c5)Cc5ccccc5)CC4)cnc3c2)CC1 (stereo not shown) [Compound 16, N-(4-benzyl-5-(4-hydroxy-4-((7-(3-(4-methylpiperazin-1-yl)propanamido)-4-oxoquinazolin-3(4H)-yl)methyl)piperidin-1-yl)-5-oxopentyl)-4-chloro-2-(3-cyanophenyl)quinoline-7-carboxamide]"
8,> 1000 nM,CN(C)CCC(=O)Nc1ccc2c(=O)n(CC3(O)CCN(C(=O)N(CCCNC(=O)c4ccc5c(Cl)ccnc5c4)Cc4ccccc4)CC3)cnc2c1 [Compound 83]
9,100 to 1000 nM,CN1CCN(CCC(=O)Nc2ccc3c(=O)n(CC4(O)CCN(C(=O)[C@H](CCCNC(=O)c5ccc6c(Cl)c7c(nc6c5)CCCC7)Cc5ccccc5)CC4)cnc3c2)CC1
10,100 to 1000 nM,CN(C)CCC(=O)Nc1ccc2c(=O)n(CC3(O)CCN(C(=O)[C@H](CCCNC(=O)c4ccc5c(Cl)c6c(nc5c4)CN(C)CC6)Cc4ccccc4)CC3)cnc2c1 [Compound 42]

# Reference: US20240376076A1, “INHIBITORS TARGETING UBIQUITIN SPECIFIC PROTEASE 7 (USP7)” (Dana-Farber Cancer Institute, Inc., priority 2021, published 2024)
